Assay results reported in patent US11213561B2, “Herbal methods for the improvement of sleep, social interaction, concern or worry” (Rox IP Pty Ltd., priority 2017, dated 2022).

Tested on: individuals with poor sleep, anxiety, worry
Assay: Individual cases treated with the four herb combination
Format: in vivo, human
Conditions: third case; patient history, prostate medication
From the text: For example, the four herb combination was used to treat three separate individuals, each at a different age with varying problems. The following are cases of how the four herb combination has improved the sleep onset, sleep maintenance, and energy of these individuals. […] They took Codeine and Paracetamol for 3 months, gradually reducing the dose whilst undergoing physiotherapy. The physiotherapy continued for approximately 6 months until the arm was fully functional and pain-free. One year after the original injury, their sleep was still impaired with onset and maintenance insomnia. The person stated that they “dreaded bedtime” and the hours they would be lying awake in bed. They worried during the day, with the worry increasing in the evening. […] In addition, they had changed their lifestyle avoiding commitments in the morning, and not socializing at night as they were worried that the stimulation would further impair their sleep. After 2 weeks on the herbal combination they noticed improvements. At 1 month, they were falling asleep within 20 minutes (versus over an hour before starting the treatment) and was waking up only once per night (versus 3 times or more before starting treatment). […] Their pattern was to readily fall asleep but then wake up 6 times throughout the night which led to urinating half the time, and then having difficulty returning to sleep. […]

`CCOc1ccccc1OCCN[C@H](C)Cc1ccc(OC)c(S(N)(=O)=O)c1` [Flomax, Tamsulosin] was tested, and the reducing night-time urination was “some improvement” and the waking at nights was “not reduced”.
